Assay results: patent publication US12509446B2, “FYN and VEGFR2 kinase inhibitors” (ROTTAPHARM BIOTECH S.R.L., priority 2019, dated 2025)
Where two headings read alike, the source gives them in different places.

Experiments:
Fyn = Fyn (Homo sapiens (Human), UniProt P06241); assay: Z′-LYTE in vitro Fyn kinase activity assay; type: biochemical; conditions: ATP 50 μM; read-out: FYN KINASE INHIBITION IC50
Procedure, shortened: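 Z′-LYTE FRET format with full-length active Fyn in 50 mM Hepes pH 7.5, 10 mM MgCl2, 1 mM EGTA, 0.01% Brij-35, 1% DMSO final; 60 minutes at 25° C. Percent phosphorylation from 0% and 100% phosphorylation controls; IC50 by non-linear curve fitting of percent inhibition.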

VEGFR2 = VEGFR2 (Homo sapiens (Human), UniProt P35968); assay: In vitro VEGFR2 kinase activity assay (Eurofins Cerep); type: biochemical; conditions: read-out: VEGFR2 KINASE INHIBITION IC50
Sequence of VEGFR2 (P35968 20-1356): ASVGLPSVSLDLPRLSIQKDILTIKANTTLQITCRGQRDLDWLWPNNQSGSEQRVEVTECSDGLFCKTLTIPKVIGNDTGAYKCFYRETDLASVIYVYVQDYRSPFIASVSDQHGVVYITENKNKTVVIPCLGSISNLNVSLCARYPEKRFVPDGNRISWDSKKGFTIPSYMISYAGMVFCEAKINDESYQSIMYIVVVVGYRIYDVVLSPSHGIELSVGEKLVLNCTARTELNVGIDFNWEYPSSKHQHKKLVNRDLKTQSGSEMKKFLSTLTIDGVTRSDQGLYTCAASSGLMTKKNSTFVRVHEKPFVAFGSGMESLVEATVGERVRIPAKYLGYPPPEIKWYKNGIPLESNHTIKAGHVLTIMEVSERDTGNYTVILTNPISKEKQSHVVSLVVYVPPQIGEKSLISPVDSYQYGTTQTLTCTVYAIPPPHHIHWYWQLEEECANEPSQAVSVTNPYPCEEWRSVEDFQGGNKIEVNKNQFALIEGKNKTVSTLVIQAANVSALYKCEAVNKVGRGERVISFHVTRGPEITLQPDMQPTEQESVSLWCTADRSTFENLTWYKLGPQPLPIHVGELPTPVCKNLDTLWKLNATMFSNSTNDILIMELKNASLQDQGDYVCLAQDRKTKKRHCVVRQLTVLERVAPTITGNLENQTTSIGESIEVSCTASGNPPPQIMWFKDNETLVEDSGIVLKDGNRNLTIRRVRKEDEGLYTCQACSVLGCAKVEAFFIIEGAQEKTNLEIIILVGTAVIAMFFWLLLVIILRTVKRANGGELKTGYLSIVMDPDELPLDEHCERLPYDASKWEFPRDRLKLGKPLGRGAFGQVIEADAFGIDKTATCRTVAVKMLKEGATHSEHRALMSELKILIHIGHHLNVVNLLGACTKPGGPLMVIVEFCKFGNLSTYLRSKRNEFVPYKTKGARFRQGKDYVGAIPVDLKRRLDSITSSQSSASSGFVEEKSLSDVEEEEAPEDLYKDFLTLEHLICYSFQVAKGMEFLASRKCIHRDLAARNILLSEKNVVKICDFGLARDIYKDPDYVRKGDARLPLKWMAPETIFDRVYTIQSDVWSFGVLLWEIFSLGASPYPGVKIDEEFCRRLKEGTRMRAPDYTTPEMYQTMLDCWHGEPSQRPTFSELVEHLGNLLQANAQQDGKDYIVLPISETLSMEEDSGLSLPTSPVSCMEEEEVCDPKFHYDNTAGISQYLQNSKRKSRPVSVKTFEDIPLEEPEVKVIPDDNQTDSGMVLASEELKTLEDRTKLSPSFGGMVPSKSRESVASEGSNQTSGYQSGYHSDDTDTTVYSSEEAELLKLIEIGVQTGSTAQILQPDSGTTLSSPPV
Procedure, shortened: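 Contract biochemical kinase assay on human VEGFR2 with inhibitors at 10^−8 to 10^−5 M final (some re-tested from 10^−9 M). Activity expressed as percent of no-compound control; IC50 by non-linear regression of mean replicate inhibition curves.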

NF-kB = assay: Gene reporter (GR) assay, NF-kB activation after TNFα in JB6 Cl 41-5a (P+) cells; type: cell-based, murine; conditions: TNFα 2 ng/ml, non toxic concentrations, read-out: Gene reporter (GR) inhibition IC50
Procedure, shortened: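 TNFα (2 ng/ml, 4 h) stimulation followed 1 h compound pre-treatment in NF-kB-luciferase-transfected mouse JB6 (P+) epithelial cells. Reporter luminescence and cell viability were read together, each condition in quadruplicate.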

IL-1β = assay: Gene expression in rat articular chondrocytes under IL-1β stimulation, IL-1β; type: cell-based; conditions: for IL-1β gene expression, percentage of inhibitory effect at the highest non toxic concentration: 6 h; for IC50: Rattus norvegicus, Chondrocyte, 6 h incubation
Procedure, shortened: (§1)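 Primary rat chondrocytes were synchronized in DMEM GlutaMAX I 0.4% 10 days after plating, then co-treated with test compounds (top concentration set by toxicity) and cytokine at 2 ng/ml. TaqMan RT-qPCR relative to 18S was read at 6 h for IL-1β and ADAMTS-5 and at 24 h for MMP3 and MMP13.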

IL-6 = assay: Gene expression in rat articular chondrocytes under IL-1β stimulation, IL-6; type: cell-based; conditions: for IL-6 gene expression, percentage of inhibitory effect at the highest non toxic concentration: 6 h
COX2 = assay: Gene expression in rat articular chondrocytes under IL-1β stimulation, COX2; type: cell-based; set-up: key to COX2 gene expression, no effect: ne: no effect; conditions: 24 h
ADAMTS-5 = assay: Gene expression in rat articular chondrocytes under IL-1β stimulation, ADAMTS-5; type: cell-based; conditions: for ADAMTS-5 gene expression, percentage of inhibitory effect at the highest non toxic concentration: 6 h; for IC50: Rattus norvegicus, Chondrocyte, 6 h incubation
Procedure, shortened: as §1

MMP3 = assay: Gene expression in rat articular chondrocytes under IL-1β stimulation, MMP3; type: cell-based; set-up: key to MMP3 gene expression, no effect: ne: no effect
Procedure, shortened: as §1

MMP13 = assay: Gene expression in rat articular chondrocytes under IL-1β stimulation, MMP13; type: cell-based; set-up: key to MMP13 gene expression, no effect: ne: no effect; conditions: 24 h
Procedure, shortened: as §1

[1] = test system: bovine nasal septum cartilage; assay: Inhibition of cartilage degradation (GAG release) induced by IL-1α in a bovine in vitro model; type: cell-based; set-up: key to Bovine cartilage degradation induced by IL-1α, no effect: ne: no effect
Experimental: Nasal septum cartilage was collected from an eight months-old male bovine in a local slaughterhouse.
Tissue was sprayed with ethanol 70% and immediately put in sterile PBS with Antibiotic-Antimycotic stabilized solution (PBS-AASS). It was cut in order to obtain small punches (diameter 2 mm, 1 mm-thick). washed with sterile PBS-AASS, the slices were transferred in a 96X well plate (one piece per well) in DMEM 10%+AASS. 48 h later the cartilage was stimulated in white DMEM+0.1% BSA+AASS with IL-1α […] in the absence or presence of the studied compounds.
The compounds concentration used in this analysis was chosen depending on the toxicity results obtained in rat primary chondrocytes at 48 h of incubation.
After 48 h stimulation, the culture medium was collected and stored at −80° C. The cartilage punches were digested with papain at 65° C. for 2 h in phosphate buffer (0.05M pH 6.5 with 2 mM N-acetil-L-cisteine and 2 mM EDTA).
The glycosaminoglycan (GAG) determination was done by a colorimetric assay with 1,9 dimethyl methylene blue (DMB).
Digested cartilage samples were diluted in PBS-BSA 1%. To 100 μl of diluted samples or standard we added 100 μl DMB 2X. After 5-20 min incubation the samples were read at 590 nm (Titertek Multiscan Plus).
The cartilage degradation induced by IL-1α was expressed as: GAG (medium)/total GAG (medium+cartilage)×100

[2] = test system: rat primary articular chondrocytes; assay: Toxicity analysis (MTT) in rat primary chondrocytes; conditions: for First toxic concentration at 24 h: rat primary chondrocytes
[3] = test system: rat primary articular chondrocytes
[4] = Bos taurus, read-out: Bovine cartilage degradation induced by IL-1α, % inhibitory effect at max concentration

Sequence of Fyn (P06241 whole entry): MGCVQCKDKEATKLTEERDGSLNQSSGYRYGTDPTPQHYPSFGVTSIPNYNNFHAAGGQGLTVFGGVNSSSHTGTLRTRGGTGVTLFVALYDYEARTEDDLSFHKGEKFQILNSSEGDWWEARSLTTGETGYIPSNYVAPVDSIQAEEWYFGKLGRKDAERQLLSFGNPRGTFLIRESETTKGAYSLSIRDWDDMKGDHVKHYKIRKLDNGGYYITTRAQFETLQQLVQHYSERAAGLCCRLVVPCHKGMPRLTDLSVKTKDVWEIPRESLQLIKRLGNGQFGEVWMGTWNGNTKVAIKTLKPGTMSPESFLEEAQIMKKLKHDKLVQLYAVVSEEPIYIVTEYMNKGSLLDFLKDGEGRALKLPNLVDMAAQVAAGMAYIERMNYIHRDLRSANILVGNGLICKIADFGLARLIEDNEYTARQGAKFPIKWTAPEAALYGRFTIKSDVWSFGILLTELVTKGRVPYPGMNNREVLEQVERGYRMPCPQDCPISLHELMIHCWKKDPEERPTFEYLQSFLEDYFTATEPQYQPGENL

| Compound | IC50 (Fyn) [nM] | IC50 (VEGFR2) [nM] | IC50 (IL-1β) [nM] | IC50 (NF-kB; Mus musculus, JB6 Cl 41-5a) [nM] | IL-1β gene expression, percentage of inhibitory effect at the highest non toxic concentration (IL-1β; 3 μM) | IL-6 gene expression, percentage of inhibitory effect at the highest non toxic concentration (IL-6; 3 μM) [μM 100%] | COX2 gene expression, percentage of inhibitory effect at the highest non toxic concentration (COX2; 3 μM) | ADAMTS-5 gene expression, percentage of inhibitory effect at the highest non toxic concentration (ADAMTS-5; 3 μM) | MMP3 gene expression, percentage of inhibitory effect at the highest non toxic concentration (MMP3; 3 μM, 24 h) | MMP13 gene expression, percentage of inhibitory effect at the highest non toxic concentration (MMP13; 3 μM) | inhibition at 3 µM [1, 4] [%] | First toxic concentration at 48 h in rat primary chondrocytes [2] [µM] | First toxic concentration at 24 h [2] [µM] | IL-1β gene expression, percentage of inhibitory effect at the highest non toxic concentration (IL-1β; 10 μM) | IL-6 gene expression, percentage of inhibitory effect at the highest non toxic concentration (IL-6; 10 μM) | COX2 gene expression, percentage of inhibitory effect at the highest non toxic concentration (COX2; 10 μM) | IC50 (ADAMTS-5) [nM] | MMP3 gene expression, percentage of inhibitory effect at the highest non toxic concentration (MMP3; 10 μM, 24 h) | MMP13 gene expression, percentage of inhibitory effect at the highest non toxic concentration (MMP13; 10 μM) | also measured |
| --- | --- | --- | --- | --- | --- | --- | --- | --- | --- | --- | --- | --- | --- | --- | --- | --- | --- | --- | --- | --- |
| CC(=O)N1Cc2cnc(Nc3cc(CCc4cc(NC(=O)c5cccc(C(F)(F)F)c5)ccc4C)n[nH]3)cc2C1 [Compound 34, N-(3-(2-(5-((2-acetyl-2,3-dihydro-1H-pyrrolo[3,4-c]pyridin-6-yl)amino)-1H-pyrazol-3-yl)ethyl)-4-methylphenyl)-3-(trifluoromethyl) benzamide] | 6 | < 10 |  |  | 3 μM 99% | 3 | 3 μM 76% | 3 μM 97% | 3 μM 58% | 3 μM 82% |  |  |  |  |  |  |  |  |  | IC50 (NF-kB): 958 nM; Bovine cartilage degradation induced by IL-1α, % inhibitory effect at max concentration ([1]; 1 μM): 96%; Inhibitory effect on the GAG release ([1]; at max concentration): 95-100%; First toxic concentration at 24 h [3]: 10 µM; First toxic concentration at 48 h in rat primary chondrocytes [3]: 3 µM |
| Cc1ncc(Nc2cc(CCc3cc(NC(=O)c4cccc(C(F)(F)F)c4)ccc3F)n[nH]2)cn1 [Compound 40, N-(4-fluoro-3-(2-(5-((2-methylpyrimidin-5-yl)amino)-1H-pyrazol-3-yl)ethyl)phenyl)-3-(trifluoromethyl)benzamide] | 99 | < 10 |  | 515 |  |  |  |  |  |  | 49 | 10 | >10 | 10 μM 100% | 10 μM 100% | 10 μM 100% | 2300 |  | 10 μM 100% | IC50 (MMP3; Rattus norvegicus, Chondrocyte, 24 h incubation): 500 nM |

Continued, in another order:

| IC50 (Fyn) [nM] | IC50 (VEGFR2) [nM] | IC50 (IL-1β) [nM] | Compound | IC50 (NF-kB; Mus musculus, JB6 Cl 41-5a) [nM] | IL-1β gene expression, percentage of inhibitory effect at the highest non toxic concentration (IL-1β; 3 μM) | IL-6 gene expression, percentage of inhibitory effect at the highest non toxic concentration (IL-6; 3 μM) [μM 100%] | COX2 gene expression, percentage of inhibitory effect at the highest non toxic concentration (COX2; 3 μM) | ADAMTS-5 gene expression, percentage of inhibitory effect at the highest non toxic concentration (ADAMTS-5; 3 μM) | MMP3 gene expression, percentage of inhibitory effect at the highest non toxic concentration (MMP3; 3 μM, 24 h) | MMP13 gene expression, percentage of inhibitory effect at the highest non toxic concentration (MMP13; 3 μM) | inhibition at 3 µM [1, 4] [%] | First toxic concentration at 48 h in rat primary chondrocytes [2] [µM] | First toxic concentration at 24 h [2] [µM] | IL-1β gene expression, percentage of inhibitory effect at the highest non toxic concentration (IL-1β; 10 μM) | IL-6 gene expression, percentage of inhibitory effect at the highest non toxic concentration (IL-6; 10 μM) | COX2 gene expression, percentage of inhibitory effect at the highest non toxic concentration (COX2; 10 μM) | IC50 (ADAMTS-5) [nM] | MMP3 gene expression, percentage of inhibitory effect at the highest non toxic concentration (MMP3; 10 μM, 24 h) | MMP13 gene expression, percentage of inhibitory effect at the highest non toxic concentration (MMP13; 10 μM) | also measured |
| --- | --- | --- | --- | --- | --- | --- | --- | --- | --- | --- | --- | --- | --- | --- | --- | --- | --- | --- | --- | --- |
| 16 | < 10 |  | Cc1ccc(NC(=O)c2cccc(C(F)F)c2)cc1CCc1cc(Nc2cnccn2)[nH]n1 [Compound 33, 3-(difluoromethyl)-N-(4-methyl-3-(2-(5-(pyrazin-2-ylamino)-1H-pyrazol-3-yl)ethyl)phenyl) benzamide] | 363 | 3 μM 93% | 3 | 3 μM 89% | 3 μM 90% | 3 μM 81% | 3 μM 94% | 91 | 10 | 10 |  |  |  |  |  |  |  |
| 88 | < 10 |  | Cc1ccc(NC(=O)c2cccc(S(=O)(=O)C(C)C)c2)cc1CCc1cc(Nc2ncccc2C)[nH]n1 [Compound 35, 3-(isopropylsulfonyl)-N-(4-methyl-3-(2-(5-((3-methylpyridin-2-yl)amino)-1H-pyrazol-3-yl)ethyl)phenyl) benzamide] | 1310 |  |  |  |  |  |  |  | >10 | >10 | 10 μM 74% | 10 μM 90% | 10 μM 90% | 3000 | 10 μM 44% | 10 μM 88% | IC50 ([1]; Bos taurus, head says nM, cells print μM, 48 h stimulation, read-out: Inhibitory effect on bovine cartilage degradation induced by IL-1α, IC50): 1500 nM |
| 24 | 35 | 1600 | Cc1nc(C#N)cc(Nc2cc(CCc3cc(NC(=O)c4cccc(S(=O)(=O)N(C)C)c4)ccc3C)n[nH]2)n1 [Compound 37, N-(3-(2-(5-((6-cyano-2-methylpyrimidin-4-yl)amino)-1H-pyrazol-3-yl)ethyl)-4-methylphenyl)-3-(N,N-dimethylsulfamoyl)benzamide] | 2260 |  |  |  |  |  |  |  | >10 | >10 |  | 10 μM 97% | 10 μM 97% | 4000 | 10 μM 59% | 10 μM 95% | inhibition at 10 µM ([1]; Bos taurus, 10 μM, read-out: Bovine cartilage degradation induced by IL-1α, % inhibitory effect at max concentration): 99% |
| 27 | 10 | 600 | Cc1ccc(NC(=O)c2cccc(S(C)(=O)=O)c2)cc1CCc1cnc(Nc2cnccn2)s1 [Compound 48, N-(4-methyl-3-(2-(2-(pyrazin-2-ylamino)thiazol-5-yl)ethyl)phenyl)-3-(methylsulfonyl)benzamide] | 275 |  |  |  |  |  |  |  | 3 | 3 |  |  |  |  |  |  | IC50 (IL-6; Rattus norvegicus, Chondrocyte, 6 h incubation): 200 nM; COX2 gene expression, no effect (COX2): ne; ADAMTS-5 gene expression, percentage of inhibitory effect at the highest non toxic concentration (ADAMTS-5; 1 μM): 1 μM 70%; MMP3 gene expression, no effect (MMP3; 24 h): ne; MMP13 gene expression, no effect (MMP13): ne; Bovine cartilage degradation induced by IL-1α, no effect [1]: ne |
